According to patent publication US9644010B2, “LY6K epitope peptides for TH1 cells and vaccines containing the same” (ONCOTHERAPY SCIENCE, INC., priority 2012, dated 2017):

Test system: LY6K-A24 (177-186) SP-specific bulk CTLs
Test: In vitro cross-presentation assay
Format: cell-based, human
Experimental: Induction of LY6K-A24 (177-186) SP-reactive CTLs from an HLA-A24^+ and HLA-DR15^+ HDL3 by stimulation with LY6K-A24 (177-186) SP was performed as described (Tomita Y, et al, Cancer Sci 2011; 102:71-8., Imai K, et al., Clin Cancer Res 2008; 14:6487-95.). Monocyte-derived DCs were generated from CD14^+ cells by in vitro culture, as described previously (Harao M, et al. Int J Cancer 2008; 123:2616-25.). Autologous immature DCs were kept alive or fixed for 3 min in 0.1% glutaraldehyde (Sigma-Aldrich), pulsed with LY6K-A24 (177-186) SP, LY6K (172-191)-LP, or control LP (16 micro-M each) for 3 h, and washed 3 times. OK432 (0.1 KE/mL) was added during and after the peptide pulse to induce the maturation of DCs. […] LY6K-A24 (177-186) SP-reactive bulk CTLs were added at a 2:1 ratio for 6 h in medium containing 10 micro g/mL brefeldin A (Sigma-Aldrich). IFN-gamma production by LY6K-A24 (177-186) SP-specific CTLs was measured by intracellular labeling. The cells were stained with a FITC-labeled anti-human IFN-gamma mAb (BioLegend) in combination with a PerCP-labeled anti-human CD8 mAb (BioLegend) and a PE-labeled LY6K-A24 (177-186) SP-specific tetramer.
The inventors assessed whether the LY6K (172-191) LP can induce expansion of LY6K-A24 (177-186) SP-specific bulk CTLs. LY6K-A24 (177-186) SP-specific bulk CTLs generated from purified CD8^+ T-cells of HLA-A24^+ HDL3 were restimulated with LY6K (172-191) LP-pulsed autologous DCs.

KCCKIRYCNLEGPPINSSVF [LY6K (172-191)]
population of LY6K-A24 (177-186) SP-specific tetramer+ CD8+ cells after stimulation with LP-pulsed DCs (bulk CTLs from HLA-A24+ HDL3, autologous DCs, day 7): significantly expanded
stimulation of LY6K-A24 (177-186) SP-specific CTLs by peptide-pulsed fixed DCs (intracellular IFN-gamma) (fixed DCs (0.1% glutaraldehyde) pulsed 3 h, 16 micro-M, CTLs from HDL3, 6 h): could not stimulate
stimulation of LY6K-A24 (177-186) SP-specific CTLs by peptide-pulsed unfixed DCs (intracellular IFN-gamma) (unfixed DCs pulsed 3 h, 16 micro-M, CTLs from HDL3, 6 h): induced a significant proportion of IFN-gamma secreting tetramer^+ CD8^+ T-cells
